Data reported in ChEMBL document CHEMBL1201862, “PubChem BioAssay data set” (2004).
The source made the active and inactive calls.

Experiments:
[1] = target: T1, RNA-binding protein pos-1 (Caenorhabditis elegans, UniProt G5EF15); assay: inhibitors of POS-1/mex-3 RNA binding, dose response, biochemical, fluorescence polarization (AID 1964);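 note: purified POS-1 fused to maltose binding protein made in E. coli; potency of compounds blocking POS-1 binding to fluorescent RNA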
T1 sequence (G5EF15 whole entry): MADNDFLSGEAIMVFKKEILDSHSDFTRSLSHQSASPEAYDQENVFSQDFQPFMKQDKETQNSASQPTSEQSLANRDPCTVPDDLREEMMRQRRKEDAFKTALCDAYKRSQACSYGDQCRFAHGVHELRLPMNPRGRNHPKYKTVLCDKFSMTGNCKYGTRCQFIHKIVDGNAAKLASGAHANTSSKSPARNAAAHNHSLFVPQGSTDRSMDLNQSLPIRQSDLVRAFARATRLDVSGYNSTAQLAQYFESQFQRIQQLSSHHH

[2] = target: T2, Zinc finger protein mex-5 (Caenorhabditis elegans, UniProt Q9XUB2); assay: MEX-5/TCR-2 RNA interaction inhibitors, dose response, biochemical, C. elegans, fluorescence polarization (AID 1960)
T2 sequence (Q9XUB2 whole entry): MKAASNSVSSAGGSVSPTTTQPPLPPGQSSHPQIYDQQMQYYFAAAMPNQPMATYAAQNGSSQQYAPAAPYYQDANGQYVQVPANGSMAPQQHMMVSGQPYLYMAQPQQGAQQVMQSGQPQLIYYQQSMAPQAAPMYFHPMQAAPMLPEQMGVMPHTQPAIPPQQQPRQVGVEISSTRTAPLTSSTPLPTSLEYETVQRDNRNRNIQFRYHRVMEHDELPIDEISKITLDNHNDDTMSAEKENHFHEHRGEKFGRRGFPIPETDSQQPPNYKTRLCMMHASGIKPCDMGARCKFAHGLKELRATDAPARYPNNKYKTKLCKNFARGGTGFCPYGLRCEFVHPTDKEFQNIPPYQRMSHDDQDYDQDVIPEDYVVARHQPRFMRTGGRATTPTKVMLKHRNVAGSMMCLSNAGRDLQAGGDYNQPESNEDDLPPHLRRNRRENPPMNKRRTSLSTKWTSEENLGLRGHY

[3] = microbe, parasite or virus in culture; assay type: functional; conditions: Mycobacterium tuberculosis
[4] = target: T3, Ubiquitin-conjugating enzyme E2 N (Homo sapiens, UniProt P61088); assay type: functional;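 note: Dose-response confirmation in a TR-FRET assay detecting UBC13-driven polyubiquitin chain formation, inhibition measured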
T3 sequence (P61088 whole entry): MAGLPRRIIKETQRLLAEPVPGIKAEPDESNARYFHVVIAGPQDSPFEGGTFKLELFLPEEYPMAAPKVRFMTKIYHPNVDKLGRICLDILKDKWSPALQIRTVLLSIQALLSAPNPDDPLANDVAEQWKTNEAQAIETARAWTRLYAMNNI

| SMILES | EC50 [1] | EC50 [2] | CC50 [3] | IC50 [4] |
| --- | --- | --- | --- | --- |
| CCN(CC)c1ccc(N/C=C2/C(=O)NC(=O)N(c3ccc(OC)cc3)C2=O)cc1 | 9.58 µM (inconclusive) | 6.36 µM (active) |  |  |
| Oc1ccc(C[C@H]2CNCCN2CCCCC2CCCCC2)cc1 |  |  | 13.2 µM (active) | > 20 µM (inactive) |
| O=C1NC(=O)N(CCc2ccccc2)C(=O)/C1=C/NCCCn1ccnc1 | > 300 µM (not active) | > 300 µM (not active) |  |  |
| COc1ccc(/C(O)=C/C2=NCC3c4ccccc4CCN3C2=O)cc1 (stereo not drawn) | > 300 µM (not active) | > 300 µM (not active) |  |  |
| NS(=O)(=O)c1ccc(CCNC(=O)C2CCN(c3ncnc4c3nc3n4CCCCC3)CC2)cc1 |  |  |  | > 20 µM (inactive) |
| O=C(CCCCCn1c(=O)[nH]c2ccccc2c1=O)NCCCN1CCN(c2ccccc2F)CC1 |  |  |  | > 20 µM (inactive) |
| CC1(C)Cc2c(sc(NC(=O)c3ccc4c(c3)OCCO4)c2C(N)=O)C(C)(C)N1 |  |  |  | > 20 µM (inactive) |
| C=CCOc1cccc(C2C(C(=O)c3ccco3)=C(O)C(=O)N2Cc2ccco2)c1 (stereo not drawn) | > 300 µM (not active) | > 300 µM (not active) |  |  |
